Experimental data from ChEMBL document CHEMBL5257016, “Rho Kinase (ROCK) Inhibitors and Their Therapeutic Potential” (J Med Chem, 2016).

Legend:
[1] = target: cAMP-dependent protein kinase (PKA) (Homo sapiens, UniProt P22694+P17612+P22612); assay: Inhibition of PKA (unknown origin); format: protein assay
[2] = target: T1, Rho-associated protein kinase 2 (Homo sapiens, UniProt O75116); assay: Inhibition of ROCK2 (unknown origin) using STK2 as substrate incubated for 4 hrs by HTRF assay
[3] = target: T2, Rho-associated protein kinase 1 (Homo sapiens, UniProt Q13464); assay: Inhibition of human ROCK1
T2 sequence (Q13464 whole entry): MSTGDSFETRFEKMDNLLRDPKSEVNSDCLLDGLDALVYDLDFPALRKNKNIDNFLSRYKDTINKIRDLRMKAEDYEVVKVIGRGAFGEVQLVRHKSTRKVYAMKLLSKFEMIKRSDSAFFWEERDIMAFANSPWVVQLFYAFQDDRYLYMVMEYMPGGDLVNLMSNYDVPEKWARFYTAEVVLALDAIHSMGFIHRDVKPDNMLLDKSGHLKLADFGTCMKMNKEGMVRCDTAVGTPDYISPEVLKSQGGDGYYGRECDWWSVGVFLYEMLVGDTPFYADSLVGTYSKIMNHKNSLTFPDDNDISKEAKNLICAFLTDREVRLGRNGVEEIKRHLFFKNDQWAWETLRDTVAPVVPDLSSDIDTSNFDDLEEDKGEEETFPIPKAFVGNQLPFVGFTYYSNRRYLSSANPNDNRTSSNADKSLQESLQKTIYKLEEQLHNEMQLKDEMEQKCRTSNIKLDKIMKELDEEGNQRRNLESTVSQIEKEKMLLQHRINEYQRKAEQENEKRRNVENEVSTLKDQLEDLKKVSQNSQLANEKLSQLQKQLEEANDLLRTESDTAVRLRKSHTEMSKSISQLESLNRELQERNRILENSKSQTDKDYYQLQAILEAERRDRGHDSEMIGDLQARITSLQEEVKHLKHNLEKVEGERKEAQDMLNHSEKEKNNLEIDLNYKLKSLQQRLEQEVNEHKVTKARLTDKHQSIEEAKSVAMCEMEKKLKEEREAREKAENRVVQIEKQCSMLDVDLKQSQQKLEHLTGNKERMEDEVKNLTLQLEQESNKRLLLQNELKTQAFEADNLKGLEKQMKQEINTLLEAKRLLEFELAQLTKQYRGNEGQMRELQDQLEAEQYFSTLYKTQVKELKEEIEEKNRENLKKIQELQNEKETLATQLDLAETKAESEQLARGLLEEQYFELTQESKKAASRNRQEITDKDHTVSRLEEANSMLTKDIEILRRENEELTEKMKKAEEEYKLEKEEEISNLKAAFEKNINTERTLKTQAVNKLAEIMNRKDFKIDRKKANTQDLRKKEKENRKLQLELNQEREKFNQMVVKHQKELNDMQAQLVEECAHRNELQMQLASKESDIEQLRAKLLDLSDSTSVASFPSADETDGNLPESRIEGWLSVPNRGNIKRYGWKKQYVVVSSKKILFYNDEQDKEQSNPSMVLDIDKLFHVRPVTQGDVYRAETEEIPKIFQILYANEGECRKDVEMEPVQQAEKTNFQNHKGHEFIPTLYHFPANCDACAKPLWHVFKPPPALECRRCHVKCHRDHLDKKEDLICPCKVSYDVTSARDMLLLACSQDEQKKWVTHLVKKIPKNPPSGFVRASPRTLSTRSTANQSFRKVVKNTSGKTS

[4] = target: T1, Rho-associated protein kinase 2; assay: Inhibition of ROCK2 (unknown origin)
[5] = target: T2, Rho-associated protein kinase 1; assay: Inhibition of ROCK1 (unknown origin)
[6] = species on record: Mus musculus; assay: Antidiabetic activity in oxygen induced retinopathy mouse model assessed as decrease in pathological neovascularization at 0.4 %, thrice daily for 6 days by microscopic analysis; format: functional; parameters: scale not given: the % may be the effect or the level left; conditions: time 6 day
[7] = species on record: Mus musculus; assay: Antidiabetic activity in oxygen induced retinopathy mouse model assessed as decrease in pathological neovascularization at 0.8 %, thrice daily for 6 days by microscopic analysis; format: functional; parameters: scale not given: the % may be the effect or the level left; conditions: time 6 day
[8] = species on record: Mus musculus; assay: Antidiabetic activity in oxygen induced retinopathy mouse model assessed as decrease in fluorescein leakage at 0.8 %, thrice daily for 6 days by fluorescein angiography; format: functional; parameters: scale not given: the % may be the effect or the level left; conditions: time 6 day
[9] = target: T2, Rho-associated protein kinase 1; assay: Inhibition of GST-tagged ROCK1 (1 to 535 residues) (unknown origin) using S6-peptide as substrate preincubated for 15 mins followed by 33P-ATP addition and measured after 120 mins by scintillation counter analysis
[10] = target: T1, Rho-associated protein kinase 2; assay: Inhibition of GST-tagged ROCK2 (5 to 554 residues) (unknown origin) using S6-peptide as substrate preincubated for 15 mins followed by 33P-ATP addition and measured after 120 mins by scintillation counter analysis
[11] = target: T1, Rho-associated protein kinase 2; assay: Inhibition of ROCK2 (unknown origin) assessed as inhibition constant
[12] = target: T2, Rho-associated protein kinase 1; assay: Inhibition of ROCK1 (unknown origin) assessed as inhibition constant
[13] = target: T2, Rho-associated protein kinase 1; assay: Inhibition of human recombinant ROCK1 using S6-peptide as substrate as substrate preincubated for 10 mins followed by 33P-labeled ATP addition and measured after 20 mins by Micro-Beta counter analysis
[14] = target: Nicotinamide phosphoribosyltransferase (Homo sapiens, UniProt P43490); assay: Inhibition of recombinant human C-terminally-His tagged NAMPT incubated for 2 to 3 hrs by TR-FRET assay
Sequence of Nicotinamide phosphoribosyltransferase (P43490 whole entry): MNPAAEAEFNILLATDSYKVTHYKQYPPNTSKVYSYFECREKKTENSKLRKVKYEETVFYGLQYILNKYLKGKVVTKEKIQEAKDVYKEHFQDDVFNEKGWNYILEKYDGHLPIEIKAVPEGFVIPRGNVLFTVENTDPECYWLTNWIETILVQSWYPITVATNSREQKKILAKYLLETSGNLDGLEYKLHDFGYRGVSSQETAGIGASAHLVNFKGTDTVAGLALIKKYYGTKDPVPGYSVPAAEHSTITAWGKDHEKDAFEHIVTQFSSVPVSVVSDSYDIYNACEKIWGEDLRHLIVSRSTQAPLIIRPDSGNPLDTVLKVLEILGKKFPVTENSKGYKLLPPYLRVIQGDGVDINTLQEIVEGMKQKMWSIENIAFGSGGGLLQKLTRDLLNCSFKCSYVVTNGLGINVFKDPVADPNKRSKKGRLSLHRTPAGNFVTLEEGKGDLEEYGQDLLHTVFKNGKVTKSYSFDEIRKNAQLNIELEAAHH

[15] = Induction of neurogenesis in human Embryonic stem cells assessed as cell proliferation incubated for 4 days by CellTiterGlo luminescence assay; format: functional, cell-based; conditions: 96 h
[16] = target: Rho-associated protein kinase 2 (Rattus norvegicus, UniProt Q62868); assay: Inhibition of ROCK2 in rat A7R5 cells assessed as MLC phosphorylation at T18/S19 by ELISA; format: cell-based
Sequence of Rho-associated protein kinase 2 (Rattus norvegicus, UniProt Q62868) (Q62868 whole entry): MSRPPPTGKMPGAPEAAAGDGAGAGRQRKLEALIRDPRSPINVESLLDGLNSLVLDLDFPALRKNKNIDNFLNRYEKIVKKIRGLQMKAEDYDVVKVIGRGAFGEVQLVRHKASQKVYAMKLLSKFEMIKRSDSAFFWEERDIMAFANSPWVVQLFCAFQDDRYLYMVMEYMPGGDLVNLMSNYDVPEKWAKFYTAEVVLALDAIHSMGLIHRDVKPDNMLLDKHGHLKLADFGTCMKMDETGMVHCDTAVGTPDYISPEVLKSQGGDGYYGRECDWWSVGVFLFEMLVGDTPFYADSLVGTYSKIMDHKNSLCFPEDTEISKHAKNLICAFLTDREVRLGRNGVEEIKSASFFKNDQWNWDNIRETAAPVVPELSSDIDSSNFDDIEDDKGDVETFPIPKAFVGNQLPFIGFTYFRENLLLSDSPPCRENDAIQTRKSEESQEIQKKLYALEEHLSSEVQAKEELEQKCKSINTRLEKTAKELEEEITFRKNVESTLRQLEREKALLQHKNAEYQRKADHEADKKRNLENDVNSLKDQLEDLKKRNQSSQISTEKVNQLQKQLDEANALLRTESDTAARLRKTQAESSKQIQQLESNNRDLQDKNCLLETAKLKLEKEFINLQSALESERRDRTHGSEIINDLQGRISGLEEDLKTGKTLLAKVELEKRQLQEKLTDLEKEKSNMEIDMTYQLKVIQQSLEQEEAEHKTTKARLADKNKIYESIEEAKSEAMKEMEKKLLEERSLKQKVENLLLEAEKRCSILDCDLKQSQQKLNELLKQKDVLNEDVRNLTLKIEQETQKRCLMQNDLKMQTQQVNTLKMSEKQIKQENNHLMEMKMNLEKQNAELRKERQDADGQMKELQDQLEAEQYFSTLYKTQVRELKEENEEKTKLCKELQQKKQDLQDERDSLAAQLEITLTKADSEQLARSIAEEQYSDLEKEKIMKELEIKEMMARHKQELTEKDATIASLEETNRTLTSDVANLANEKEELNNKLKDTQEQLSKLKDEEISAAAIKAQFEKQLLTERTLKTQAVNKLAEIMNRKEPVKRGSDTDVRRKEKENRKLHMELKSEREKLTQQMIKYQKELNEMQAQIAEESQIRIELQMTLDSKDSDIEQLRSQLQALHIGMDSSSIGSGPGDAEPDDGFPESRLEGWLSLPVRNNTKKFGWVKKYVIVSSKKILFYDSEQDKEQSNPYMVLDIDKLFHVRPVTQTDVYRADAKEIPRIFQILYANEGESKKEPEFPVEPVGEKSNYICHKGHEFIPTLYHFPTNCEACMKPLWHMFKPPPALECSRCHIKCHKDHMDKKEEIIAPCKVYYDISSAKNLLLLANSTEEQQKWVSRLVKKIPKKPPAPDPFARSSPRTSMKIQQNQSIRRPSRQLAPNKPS

[17] = Stability of compound in human plasma assessed as half life at 1 uM by LC-MS/MS analysis; format: ADME, cell-free
[18] = target: T1, Rho-associated protein kinase 2; assay: Inhibition of ROCK2 (unknown origin) using 33P-ATP as substrate and measured after 120 mins by radiometric analysis
[19] = target: T1, Rho-associated protein kinase 2; assay: Inhibition of human recombinant ROCK2 using 5FAM-AKRRRLSSLRA-COOH as substrate preincubated for 10 mins followed by substrate addition in presence of ATP and measured after 45 mins by TR-FRET assay
[20] = target: RAC-beta serine/threonine-protein kinase (Homo sapiens, UniProt P31751); assay: Inhibition of AKT2 (unknown origin)
[21] = target: RAC-alpha serine/threonine-protein kinase (Homo sapiens, UniProt P31749); assay: Inhibition of AKT1 (unknown origin)
Sequence of RAC-alpha serine/threonine-protein kinase (P31749 whole entry): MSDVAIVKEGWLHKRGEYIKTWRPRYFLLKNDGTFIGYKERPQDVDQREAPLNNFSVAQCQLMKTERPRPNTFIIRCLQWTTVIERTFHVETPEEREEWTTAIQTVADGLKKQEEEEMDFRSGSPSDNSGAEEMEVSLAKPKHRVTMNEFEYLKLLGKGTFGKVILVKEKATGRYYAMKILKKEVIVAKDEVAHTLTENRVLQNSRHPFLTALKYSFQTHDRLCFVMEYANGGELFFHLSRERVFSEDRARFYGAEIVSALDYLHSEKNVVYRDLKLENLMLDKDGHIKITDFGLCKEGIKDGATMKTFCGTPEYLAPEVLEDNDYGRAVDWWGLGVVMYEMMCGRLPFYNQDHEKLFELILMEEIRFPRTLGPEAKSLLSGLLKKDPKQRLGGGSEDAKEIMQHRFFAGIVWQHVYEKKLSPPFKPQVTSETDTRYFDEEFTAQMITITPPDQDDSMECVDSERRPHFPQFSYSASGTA

[22] = target: Ribosomal protein S6 kinase alpha-1 (Homo sapiens, UniProt Q15418); assay: Inhibition of RSK1 (unknown origin)
[23] = Inhibition of p70S6K (unknown origin); parameters: species or system Homo sapiens
[24] = Oral bioavailability of Wistar rat at 0.910 mg/kg and measured upto 7 hrs by HPLC/MS analysis; format: ADME, organism-based; conditions: in vivo, dose 0.91 mg/kg
[25] = Half life of Wistar rat at 0.910 mg/kg, po and measured upto 7 hrs by HPLC/MS analysis; format: ADME, organism-based; conditions: in vivo, dose 0.91 mg/kg
[26] = Clearance of Wistar rat at 0.910 mg/kg, po and measured upto 7 hrs by HPLC/MS analysis; format: ADME, organism-based; conditions: in vivo, dose 0.91 mg/kg
[27] = target: T1, Rho-associated protein kinase 2; assay: Inhibition of human recombinant ROCK2 assessed as inhibition constant by microfluidic mobility shift method

T1 sequence (O75116 whole entry): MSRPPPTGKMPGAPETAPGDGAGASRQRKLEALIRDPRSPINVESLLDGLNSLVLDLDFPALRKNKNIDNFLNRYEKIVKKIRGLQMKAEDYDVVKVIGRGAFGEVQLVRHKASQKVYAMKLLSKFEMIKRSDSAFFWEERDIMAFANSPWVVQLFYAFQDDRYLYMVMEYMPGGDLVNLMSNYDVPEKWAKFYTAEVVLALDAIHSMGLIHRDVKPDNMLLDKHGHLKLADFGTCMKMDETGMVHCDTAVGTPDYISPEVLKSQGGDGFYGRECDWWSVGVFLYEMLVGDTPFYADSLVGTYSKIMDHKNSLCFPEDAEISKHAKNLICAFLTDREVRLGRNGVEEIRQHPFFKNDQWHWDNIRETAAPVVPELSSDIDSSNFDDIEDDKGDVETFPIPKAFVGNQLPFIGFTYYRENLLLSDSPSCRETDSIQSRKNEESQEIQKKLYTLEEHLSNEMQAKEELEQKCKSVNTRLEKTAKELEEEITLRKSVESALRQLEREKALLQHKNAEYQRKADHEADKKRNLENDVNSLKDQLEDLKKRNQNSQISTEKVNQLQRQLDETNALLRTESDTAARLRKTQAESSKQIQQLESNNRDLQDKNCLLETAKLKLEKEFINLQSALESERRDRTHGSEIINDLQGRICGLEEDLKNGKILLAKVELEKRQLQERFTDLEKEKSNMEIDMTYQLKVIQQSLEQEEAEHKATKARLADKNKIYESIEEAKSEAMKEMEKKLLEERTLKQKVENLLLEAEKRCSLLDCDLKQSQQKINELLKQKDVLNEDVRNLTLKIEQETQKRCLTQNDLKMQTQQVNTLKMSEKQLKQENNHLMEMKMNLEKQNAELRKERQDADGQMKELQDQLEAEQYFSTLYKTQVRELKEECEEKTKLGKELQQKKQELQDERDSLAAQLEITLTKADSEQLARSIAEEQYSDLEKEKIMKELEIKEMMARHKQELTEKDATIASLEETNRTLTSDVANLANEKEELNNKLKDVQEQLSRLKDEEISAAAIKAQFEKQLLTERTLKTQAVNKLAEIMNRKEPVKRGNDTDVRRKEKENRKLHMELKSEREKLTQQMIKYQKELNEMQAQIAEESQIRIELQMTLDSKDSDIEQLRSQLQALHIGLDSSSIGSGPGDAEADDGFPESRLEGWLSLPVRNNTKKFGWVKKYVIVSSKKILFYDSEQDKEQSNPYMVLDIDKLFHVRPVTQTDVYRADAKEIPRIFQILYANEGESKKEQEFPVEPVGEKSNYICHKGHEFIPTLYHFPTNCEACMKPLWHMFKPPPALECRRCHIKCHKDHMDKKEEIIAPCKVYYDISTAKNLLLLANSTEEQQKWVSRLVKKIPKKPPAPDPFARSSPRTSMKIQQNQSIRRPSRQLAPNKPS

Structure (SMILES): COc1cccc(CNC(=O)c2cc3ccc(-c4cn[nH]c4)cc3[nH]2)c1
- IC50 [1]: 6740 nM
- IC50 [2]: 1.6 nM

Structure (SMILES): COc1cccc(CNC(=O)c2c[nH]c3cc(-c4cn[nH]c4)ccc23)c1
- IC50 [1]: 3340 nM
- IC50 [2]: < 1 nM

Structure (SMILES): COc1cccc(CNC(=O)c2[nH]c3cc(-c4cn[nH]c4)ccc3c2CN(C)C)c1
- IC50 [1]: 1510 nM

Structure (SMILES): O=C(Nc1ccc(-c2ccncc2)cc1)N[C@@H](CO)c1ccccc1
- IC50 [3]: 85 nM

Structure (SMILES): O=C(NCc1c(Cl)cccc1Cl)Nc1ccc2[nH]ncc2c1
- IC50 [4]: 20 nM

Structure (SMILES): O=C(Nc1ccc(-c2cn[nH]c2)cc1)OCc1ccccc1
- IC50 [1]: > 20000 nM

Structure (SMILES): C[C@@H](N)c1ccc(C(=O)Nc2ccncc2)cc1
- IC50 [4]: 200 nM

Structure (SMILES): O=C(NCc1cccc(O)c1)Nc1nc(-c2ccncc2)cs1
- IC50 [5]: 14.5 nM

Structure (SMILES): C[C@H]1CNCCCN1S(=O)(=O)c1cccc2cncc(F)c12
- Activity [6]: 23%
- Activity [7]: 41.9%
- Activity [8]: 58.4%

Structure (SMILES): NCc1ccc(Oc2ccc3c(c2)B(O)OC3)c(F)c1
- IC50 [9]: 810 nM
- IC50 [10]: 540 nM

Structure (SMILES): NCc1ccc(Oc2ccc3c(c2)B(O)OC3)c(Cl)c1
- IC50 [9]: 730 nM
- IC50 [10]: 340 nM

Structure (SMILES): OCCOc1cccc(CN2CC[C@@H](Nc3cccc4cnccc34)C2)c1
- Ki [11]: 14 nM
- Ki [12]: 5 nM

Structure (SMILES): C[C@@H](N)[C@H]1CC[C@H](C(=O)Nc2ccnc3[nH]ccc23)CC1
- Ki [11]: 10 nM

Structure (SMILES): COc1cccc(CN(C(=O)c2n[nH]c3cc(-c4cn[nH]c4)ccc23)C2CC2)c1
- IC50 [1]: > 20000 nM
- IC50 [2]: 6 nM

Structure (SMILES): Nc1nc(Nc2ccc(Oc3ccc4[nH]ncc4c3)c(F)c2)cc(-c2ccncc2)n1
- IC50 [13]: 20 nM

Structure (SMILES): COc1cccc(CN(CCN(C)C)C(=O)c2n[nH]c3cc(-c4cn[nH]c4)ccc23)c1
- IC50 [1]: 184 nM
- IC50 [2]: < 1 nM

Structure (SMILES): COc1cccc(CNC(=O)c2nc3ccc(-c4cn[nH]c4)cc3[nH]2)c1
- IC50 [1]: 1530 nM
- IC50 [2]: 4 nM

Structure (SMILES): N#Cc1c[nH]c2nccc(Oc3c(F)cc(Nc4ccnc(N)n4)cc3F)c12
- IC50 [4]: 1 nM

Structure (SMILES): O=C(Nc1ccc(-c2n[nH]c(=O)c3c2CCCC3)cc1)N1Cc2ccc(Cl)cc2C1
- IC50 [14]: 44 nM

Structure (SMILES): COc1cc(-c2cn[nH]c2)ccc1NC(=O)CCc1ccccc1
- IC50 [15]: 84 nM

Structure (SMILES): COc1cccc(CNC(=O)c2cc3cc(-c4cn[nH]c4)ccc3[nH]2)c1
- IC50 [1]: > 20000 nM
- IC50 [2]: 17 nM

Structure (SMILES): O=C(Nc1ccc(-c2n[nH]c(=O)c3c2CCCC3)cc1)N1Cc2ccc(F)cc2C1
- IC50 [14]: 45 nM

Structure (SMILES): Cc1nnnn1-c1ccc(C(=O)NCc2cccc(C(=O)NC3=NC4CCN(C)CC4S3)c2)cc1 (stereo unspecified)
- IC50 [4]: 6 nM

Structure (SMILES): O=C(Cc1ccccc1Cl)Nc1ccc(-c2cn[nH]c2)cc1OCCN1CCCC1
- IC50 [4]: 9 nM

Structure (SMILES): O=C(OCC1CCCO1)c1cccc(CN2CCCC(Nc3ccc4[nH]ncc4c3)C2)c1 (stereo unspecified)
- IC50 [16]: 240 nM
- half-life at 1 µM [17]: < 5 min
- IC50 [18]: 3 nM

Structure (SMILES): COc1cccc(CNC(=O)c2n[nH]c3ccc(-c4cn[nH]c4)cc23)c1
- IC50 [2]: 67 nM

Structure (SMILES): COc1cccc(CNC(=O)c2n[nH]c3cc(-c4cn[nH]c4)ccc23)c1
- IC50 [1]: 3340 nM
- IC50 [2]: < 1 nM

Structure (SMILES): O=C(Nc1ccc(-c2cn[nH]c2)cc1)[C@@H]1CNC[C@H]1c1ccccc1
- IC50 [4]: 33 nM

Structure (SMILES): NC(=O)c1cc(F)c(N[C@H]2CC[C@H](N)CC2)cc1F
- IC50 [4]: 26 nM

Structure (SMILES): COc1cccc(CNC(=O)c2nn(C)c3cc(-c4cn[nH]c4)ccc23)c1
- IC50 [1]: 1520 nM
- IC50 [2]: < 1 nM

Structure (SMILES): Nc1nc(Nc2ccc(Oc3ccc4[nH]ncc4c3)c(F)c2)cc(N2C[C@@H]3CCCN[C@@H]3C2)n1
- IC50 [13]: 6 nM

Structure (SMILES): COc1nc(Nc2ccc3[nH]ncc3c2)nc(N2CCNCC2)n1
- IC50 [19]: 20 nM

Structure (SMILES): COc1cccc(CNC(=O)c2c[nH]c3ccc(-c4cn[nH]c4)cc23)c1
- IC50 [2]: 67 nM

Structure (SMILES): Cc1c(Oc2ccc(CN)cc2F)ccc2c1B(O)OC2
- IC50 [9]: 250 nM
- IC50 [10]: 220 nM

Structure (SMILES): NC[C@@](O)(c1ccc(Cl)cc1)c1ccc(-c2cn[nH]c2)cc1 [AT-13148]
- IC50 [20]: 402 nM
- IC50 [1]: < 10 nM
- IC50 [21]: 38 nM
- IC50 [22]: 85 nM
- IC50 [4]: < 10 nM
- IC50 [23]: < 10 nM
- IC50 [5]: < 10 nM

Structure (SMILES): Cc1c[nH]c2nccc(Oc3c(F)cc(Nc4cc(Cl)nc(N)n4)cc3F)c12 [BAY-549]
- bioavailability [24]: 48%
- half-life [25]: 1.2 h
- CL/F [26]: 28.3 mL/min/kg

Structure (SMILES): O=c1[nH]ccc2cc(OC3CCNCC3)ccc12 [SAR-407899 FREE BASE]
- Ki [27]: 36 nM
